Test results reported in US20140343145A1, “RBP1 as a Molecular Biomarker for Predicting Survival and Response to Treatment in Glioma” (The Regents of the University of California, priority 2011, published 2014).
Entries after “also recorded” stand apart in the source; their conditions may differ.

Legend:
[1] = tested on: primary glioblastoma multiforme patients; test: Kaplan-Meier analysis of overall survival in the GBM Survival Cohort (124 primary glioblastoma patients) by RBP1 methylation and isotretinoin treatment; assay type: in vivo, human
Excerpt: FIGS. 10A-10B show the Kaplan-Meier analysis of overall survival (OS) in a cohort of 124 primary glioblastoma mulitforme patients with respect to RBP1 methylation and isotretinoin (ITR) treatment. FIG. 10A provides RBP1-unmethylated patients treated (solid, n=19) vs untreated with isotretinoin (dotted, n=83). FIG. 10B provides RBP1-methylated patients treated (solid, n=7) and untreated with isotretinoin (dotted, n=15). RBP1=retinol binding protein 1; WT=wild-type; MUT=mutant; ITR=isotretinoin.
Within the 198-patient Total Cohort, 124 samples that were obtained from treatment-naïve primary GBM patients with detailed clinical information were retrospectively identified. Patients were treated with a combination of radiation (RT) and temozolomide (TMZ) after surgical resection (Stupp R, et al. N Engl J Med 2005; 352(10):987-96). Overall survival (OS) was defined as the date of diagnosis to date of death from any cause. For patients lost to follow-up without obtainable date of death, censoring date was last clinic visit or contact. If the last clinic or contact was after the Sep. 9, 2011 freeze date, the patient was censored at […]. […]
Correlation between IDH1 mutation and RBP1 methylation was determined using the Spearman correlation test. […]

[2] = tested on: patients with primary glioblastoma; test: Kaplan-Meier analysis of overall survival in a preliminary cohort of 414 primary glioblastoma patients, with or without upfront isotretinoin; assay type: in vivo, human
Method: Survival for an unpublished preliminary cohort of 414 patients with primary glioblastoma were analyzed with Kaplan-Meier analysis. Survival curves for patients with wild-type or IDH1/2 mutant genotypes with or without upfront treatment with isotretinoin, in combination with standard-of-care debulking surgery, temozolomide, and radiation therapy, are shown. […] WT=wild-type, MUT=IDH1 MUT, ITR=isotretinoin (13-cis retinoic acid).
Specifically, the median overall survival for IDH1 mutant glioblastoma patients treated with isotretinoin was 81 months as compared with 36 months for similar IDH1 mutant glioblastoma patients who were not treated with isotretinoin. […] Therefore, in some embodiments, the present invention is directed to methods of treating IDH1/IDH2 mutant gliomas in subjects, which comprise administering to the subjects having been diagnosed with an IDH1 and/or an IDH2 mutation and/or RBP1 promoter hypermethylation one or more retinoids.

[3] = tested on: unselected glioma patients; conditions: patients not selected for any biomarker/mutation (Yung 1996); cited from earlier work

CC1=C(/C=C/C(C)=C/C=C/C(C)=C\C(=O)O)C(C)(C)CCC1 [isotretinoin, 13-cis retinoic acid]
median OS (overall survival) ([1]; RBP1-methylated primary GBM patients who received isotretinoin (n=7), untreated 36.7 months, P=0.53): 82.5 months | median OS (overall survival) ([1]; RBP1-unmethylated primary GBM patients who received adjuvant isotretinoin with temozolomide (n=19), untreated 19.8 months, P=0.25): 22.0 months | median overall survival ([2]; IDH1 mutant glioblastoma patients treated with isotretinoin, 36 months for similar patients not treated): 81 months | effect on overall survival, IDH1/IDH2 mutant glioblastoma ([2]; upfront isotretinoin with standard-of-care debulking surgery, temozolomide and radiation, patients with IDH1 or IDH2 mutant glioblastoma): significantly improve the overall survival; also recorded: significantly increased overall survival | effect on overall survival, wild-type tumors ([2]; upfront isotretinoin with standard-of-care debulking surgery, temozolomide and radiation, patients with wild-type tumors (WT)): only modest increase in overall survival | efficacy in unselected glioma patients [3]: little to only modest efficacy
